According to the NIST ThermoML archive (doi:10.1016/j.jct.2018.08.036):
“And” between values parts separate entries of the source, which are not always exact repeats. Identical values can stand only once. ± gives the expanded uncertainty stated by the source.

Assays:
[1] = refractive index (Na D-line) (dimensionless); settings: 100 kPa, Liquid, Standard Abbe refractometry
[2] = 100 kPa, Liquid; for speed of sound: Frequency=3 MHz, Single path-length method; for mass density: Vibrating tube method; for viscosity: Falling or rolling sphere viscometry
[3] = xn = mol fraction of the nth substance listed; settings: 100 kPa, Liquid, x1 = 1; for viscosity: Falling or rolling sphere viscometry; for speed of sound: Frequency=3 MHz, Single path-length method; for mass density: Vibrating tube method
[4] = refractive index (Na D-line) (dimensionless); xn = mol fraction of the nth substance listed; settings: 100 kPa, Liquid, Standard Abbe refractometry, x1 = 1

CCC(C)c1ccccc1 (centres undefined) [(1-methylpropyl)benzene]
Settings | mass density, [2] [kg/m3] | refractive index, [1] | speed of sound, [2] [m/s] | viscosity, [2] [mPa·s]
293.15 K | 861.95 ± 0.42 | 1.49 ± 0.0004 | 1333.8 ± 1 | –
298.15 K | 857.89 ± 0.42 | 1.4876 ± 0.0004 | 1313.8 ± 1 | 0.912 ± 0.021
308.15 K | 849.78 ± 0.42 | 1.4827 ± 0.0004 | 1274.5 ± 1 | 0.796 ± 0.021
318.15 K | 841.64 ± 0.42 | 1.4778 ± 0.0004 | 1235.7 ± 1 | 0.707 ± 0.021
323.15 K | 837.48 ± 0.42 | 1.4753 ± 0.0004 | 1216.1 ± 1 | –

CCCCCCCCCCCCCCCC [hexadecane]
Settings | mass density, [2] | refractive index, [1] | speed of sound, [2] | viscosity, [2]
293.15 K | 773.33 ± 0.42 kg/m3 | 1.4345 ± 0.0004 | 1357.5 ± 1 m/s | 3.341 ± 0.065 mPa·s
298.15 K | 769.86 ± 0.42 kg/m3 and 769.81 ± 0.42 kg/m3 | 1.4324 ± 0.0004 | 1338.6 ± 1 m/s and 1338.5 ± 1 m/s | 2.968 ± 0.064 mPa·s and 3.035 ± 0.065 mPa·s
303.15 K | 766.4 ± 0.42 kg/m3 | 1.4304 ± 0.0004 | 1319.9 ± 1 m/s | 2.656 ± 0.064 mPa·s
308.15 K | 762.94 ± 0.42 kg/m3 and 762.89 ± 0.42 kg/m3 | 1.4283 ± 0.0004 | 1301.3 ± 1 m/s and 1301.2 ± 1 m/s | 2.389 ± 0.063 mPa·s and 2.439 ± 0.063 mPa·s
313.15 K | 759.48 ± 0.42 kg/m3 | 1.4261 ± 0.0004 | 1282.9 ± 1 m/s | 2.164 ± 0.062 mPa·s
318.15 K | 755.99 ± 0.42 kg/m3 and 755.98 ± 0.42 kg/m3 | 1.4241 ± 0.0004 | 1264.6 ± 1 m/s and 1264.7 ± 1 m/s | 1.971 ± 0.062 mPa·s and 2.008 ± 0.062 mPa·s
323.15 K | 752.58 ± 0.42 kg/m3 | 1.422 ± 0.0004 | 1246.6 ± 1 m/s | 1.8 ± 0.062 mPa·s

CCCCCCCCCCCCCCCC [hexadecane] + CCC(C)c1ccccc1
Settings | mass density, [3] [kg/m3] | refractive index, [4] | speed of sound, [3] [m/s] | viscosity, [3] [mPa·s]
298.15 K | 769.81 ± 0.42 | 1.4324 ± 0.0004 | 1338.5 ± 1 | 3.035 ± 0.064
308.15 K | 762.89 ± 0.42 | 1.4283 ± 0.0004 | 1301.2 ± 1 | 2.439 ± 0.063
318.15 K | 755.98 ± 0.42 | 1.4241 ± 0.0004 | 1264.7 ± 1 | 2.008 ± 0.062

CCCCCCCCCCCCCCCC [hexadecane] + CCCc1ccccc1
Settings | mass density, [3] [kg/m3] | refractive index, [4] | speed of sound, [3] [m/s] | viscosity, [3] [mPa·s]
298.15 K | 769.86 ± 0.42 | 1.4324 ± 0.0004 | 1338.6 ± 1 | 2.968 ± 0.064
308.15 K | 762.94 ± 0.42 | 1.4283 ± 0.0004 | 1301.3 ± 1 | 2.389 ± 0.063
318.15 K | 755.99 ± 0.42 | 1.4241 ± 0.0004 | 1264.6 ± 1 | 1.971 ± 0.062

CCCc1ccccc1 [propylbenzene]
Settings | mass density, [2] [kg/m3] | refractive index, [1] | speed of sound, [2] [m/s] | viscosity, [2] [mPa·s]
288.15 K | – | – | – | 0.924 ± 0.021
293.15 K | 862.72 ± 0.22 | 1.4921 ± 0.0004 | 1341.5 ± 0.6 | 0.846 ± 0.021
298.15 K | 858.45 ± 0.22 | 1.4896 ± 0.0004 | 1320.6 ± 0.6 | 0.792 ± 0.021
303.15 K | 854.28 ± 0.22 | 1.487 ± 0.0004 | 1300.4 ± 0.6 | 0.742 ± 0.021
308.15 K | 850.01 ± 0.22 | 1.4844 ± 0.0004 | 1280.6 ± 0.6 | 0.699 ± 0.021
313.15 K | 845.81 ± 0.22 | 1.4818 ± 0.0004 | 1260.9 ± 0.6 | 0.655 ± 0.021
318.15 K | 841.53 ± 0.22 | 1.4792 ± 0.0004 | 1241 ± 0.6 | 0.626 ± 0.021
323.15 K | 837.31 ± 0.22 | 1.4766 ± 0.0004 | 1221.5 ± 0.6 | 0.601 ± 0.02
